Test results taken from ChEMBL document CHEMBL4390686, “Design, Synthesis, and Pharmacokinetic Evaluation of Phosphate and Amino Acid Ester Prodrugs for Improving the Oral Bioavailability of the HIV-1 Protease Inhibitor Atazanavir” (J Med Chem, 2019).
pEC50, pIC50: −log10 of the molar value. Converted amounts (≈) assume the structure as drawn.

Columns and labels:
physchem [1] = conditions: 30% CH3CN/HCl buffer, pH 1
Description: Half life in pH 1 30%CH3CN/HCl buffer at 50 mM by RP-UPLC analysis

physchem [2] = conditions: 30% CH3CN/acetate buffer, pH 4
Description: Half life in pH 4 30%CH3CN/acetate buffer at 50 mM by RP-UPLC analysis

physchem [3] = conditions: HCl buffer, pH 1
Description: Aqueous solubility of the compound in pH 1 HCl buffer by RP-UPLC analysis

physchem [4] = conditions: acetate buffer, pH 4
Description: Aqueous solubility of the compound in pH 4 acetate buffer by RP-UPLC analysis

physchem [5] = conditions: 30% CH3CN/phosphate buffer, pH 7.4
Description: Half life in pH 7.4 30%CH3CN/phosphate buffer at 50 mM by RP-UPLC analysis

physchem [6] = conditions: phosphate buffer, pH 7.4
Description: Aqueous solubility of the compound in pH 7.4 phosphate buffer by RP-UPLC analysis

Protease = Protease (Human immunodeficiency virus 1, UniProt Q9YQ12)
Description: Inhibition of HIV1 protease activity

[7] = rat, in vivo, po, 3 mg/kg
[8] = rat, in vivo, po, 3 mg/kg; remark: listed apart in the source
[9] = rat, in vivo, po, 3 mg/kg; remark: listed apart in the source
Description: AUClast in cannulated Sprague-Dawley rat assessed as atazanavir level at 3 mg/kg equiv of atazanavir administered orally by UPLC/MS/MS analysis

[10] = test system: Human immunodeficiency virus 1
Description: Antiviral activity against HIV1 NL4-3 infected in human MT2 cells assessed as reduction in viral yield measured after 4 days by EnduRen live cell substrate based luciferase reporter gene assay

physchem [11] = conditions: 30% CH3CN/phosphate buffer, pH 6.5
Description: Half life in pH 6.5 30%CH3CN/phosphate buffer at 50 mM by RP-UPLC analysis

physchem [12] = conditions: phosphate buffer, pH 6.5
Description: Aqueous solubility of the compound in pH 6.5 phosphate buffer by RP-UPLC analysis

in vitro [13] = conditions: human, Caco-2
Description: Apparent permeability across apical to basolateral side in human Caco2 cells at 2 uM

in vitro [14] = conditions: human, Caco-2; remark: listed apart in the source
Description: Apparent permeability across basolateral to apical side in human Caco2 cells at 2 uM

in vitro [15] = conditions: human, Caco-2; remark: listed apart in the source
Description: Efflux ratio of apparent permeability across basolateral to apical side over apical to basolateral side in human Caco2 cells

Protease, sequence (Q9YQ12 whole entry): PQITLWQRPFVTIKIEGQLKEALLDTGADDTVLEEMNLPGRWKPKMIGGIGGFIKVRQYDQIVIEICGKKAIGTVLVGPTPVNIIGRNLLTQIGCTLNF

SMILES | half-life at 50000 µM (physchem [1]) | half-life at 50000 µM (physchem [2]) | solubility (physchem [3]) | solubility (physchem [4]) | half-life at 50000 µM (physchem [5]) | solubility (physchem [6]) | pIC50 (Protease) | Cmax [7] | Tmax [8] | AUClast [9] | pEC50 [10] | half-life at 50000 µM (physchem [11]) | solubility (physchem [12]) | Papp A→B at 2 µM (in vitro [13]) | Papp B→A at 2 µM (in vitro [14]) | efflux ratio (in vitro [15])
COC(=O)N[C@H](C(=O)N[C@@H](Cc1ccccc1)[C@H](CN(Cc1ccc(-c2ccccn2)cc1)NC(=O)[C@@H](NC(=O)OC)C(C)(C)C)OC(=O)[C@H](N)CCSC)C(C)(C)C | > 20.8 days | > 20.8 days | > 990 µg/mL | > 890 µg/mL | 4.05 days | 45 µg/mL (≈ 53.8 µM) |  |  |  |  |  |  |  |  |  | 
COC(=O)N[C@H](C(=O)N[C@@H](Cc1ccccc1)[C@H](CN(Cc1ccc(-c2ccccn2)cc1)NC(=O)[C@@H](NC(=O)OC)C(C)(C)C)OC(=O)CN)C(C)(C)C | > 20.8 days | > 20.8 days | > 1200 µg/mL | > 1600 µg/mL | 1.63 days | 960 µg/mL (≈ 1260 µM) | 5.94 to 8.40 | 162 nM | 0.38 days | 0.224 µM·h | 5.90 to 9.05 |  |  |  |  | 
COC(=O)N[C@H](C(=O)N[C@@H](Cc1ccccc1)[C@H](CN(Cc1ccc(-c2ccccn2)cc1)NC(=O)[C@@H](NC(=O)OC)C(C)(C)C)OC(=O)[C@@H](NC(=O)[C@H](N)C(C)C)C(C)C)C(C)(C)C | > 20.8 days | > 20.8 days | > 2000 µg/mL | > 2000 µg/mL |  |  | 5.94 to 8.40 |  |  |  | 5.90 to 9.05 | > 20.8 days | 620 µg/mL (≈ 686 µM) |  |  | 
COC(=O)N[C@H](C(=O)N[C@@H](Cc1ccccc1)[C@H](CN(Cc1ccc(-c2ccccn2)cc1)NC(=O)[C@@H](NC(=O)OC)C(C)(C)C)OC(=O)[C@@H](N)CCSC)C(C)(C)C | > 20.8 days | > 20.8 days | > 1630 µg/mL | > 1530 µg/mL | 4.33 days | 44 µg/mL (≈ 52.6 µM) |  | 37 nM | 0.0346 days | 0.053 µM·h |  |  |  |  |  | 
COC(=O)N[C@H](C(=O)N[C@@H](Cc1ccccc1)[C@H](CN(Cc1ccc(-c2ccccn2)cc1)NC(=O)[C@@H](NC(=O)OC)C(C)(C)C)OC(=O)CNCc1ccccc1)C(C)(C)C | > 20.8 days | > 20.8 days | > 990 µg/mL | > 710 µg/mL |  |  |  | 55 nM | 0.025 days | 0.1 µM·h |  | 13.9 days | < 1 µg/mL | < 1.5 ×10⁻⁶ cm/s | 9.6 ×10⁻⁶ cm/s | > 6.4
COC(=O)N[C@H](C(=O)N[C@@H](Cc1ccccc1)[C@H](CN(Cc1ccc(-c2ccccn2)cc1)NC(=O)[C@@H](NC(=O)OC)C(C)(C)C)OC(=O)[C@@H](N)Cc1ccc(O)cc1)C(C)(C)C | > 20.8 days | 15.7 days | > 980 µg/mL | > 1420 µg/mL | 8.95 days | 9 µg/mL (≈ 10.4 µM) |  | 99 nM | 0.017 days | 0.103 µM·h |  |  |  | < 1.5 ×10⁻⁶ cm/s | 7.1 ×10⁻⁶ cm/s | > 4.7
COC(=O)N[C@H](C(=O)N[C@@H](Cc1ccccc1)[C@H](CN(Cc1ccc(-c2ccccn2)cc1)NC(=O)[C@@H](NC(=O)OC)C(C)(C)C)OC(=O)[C@H](C)N)C(C)(C)C | > 20.8 days | > 20.8 days | > 1300 µg/mL | > 1100 µg/mL |  |  | 5.94 to 8.40 | 39 nM | 0.12 days | 0.094 µM·h | 5.90 to 9.05 | 1.57 days | 750 µg/mL (≈ 967 µM) |  |  | 
COC(=O)N[C@H](C(=O)N[C@@H](Cc1ccccc1)[C@H](CN(Cc1ccc(-c2ccccn2)cc1)NC(=O)[C@@H](NC(=O)OC)C(C)(C)C)OC(=O)[C@@H](N)Cc1ccc(F)cc1)C(C)(C)C | > 20.8 days | > 20.8 days | > 1380 µg/mL | > 980 µg/mL | 13.9 days | < 1 µg/mL |  | 305 nM | 0.021 days | 0.463 µM·h |  |  |  | < 1.5 ×10⁻⁶ cm/s | 8.2 ×10⁻⁶ cm/s | > 5.5
CNCC(=O)O[C@@H](CN(Cc1ccc(-c2ccccn2)cc1)NC(=O)[C@@H](NC(=O)OC)C(C)(C)C)[C@H](Cc1ccccc1)NC(=O)[C@@H](NC(=O)OC)C(C)(C)C | > 20.8 days | > 13.9 days | > 2200 µg/mL | > 2400 µg/mL |  |  |  | 9 nM | 0.021 days | 0.0296 µM·h |  | 1.04 days | 930 µg/mL (≈ 1200 µM) |  |  | 
COC(=O)N[C@H](C(=O)N[C@@H](Cc1ccccc1)[C@H](CN(Cc1ccc(-c2ccccn2)cc1)NC(=O)[C@@H](NC(=O)OC)C(C)(C)C)OC(=O)CN(C)C(=O)[C@H](Cc1ccccc1)N(C)C)C(C)(C)C | 15.7 days | > 20.8 days | > 1200 µg/mL | > 2200 µg/mL |  |  |  | 285 nM | 0.021 days | 0.359 µM·h |  | > 13.9 days | 20 µg/mL (≈ 21 µM) |  |  | 
COC(=O)N[C@H](C(=O)N[C@@H](Cc1ccccc1)[C@H](CN(Cc1ccc(-c2ccccn2)cc1)NC(=O)[C@@H](NC(=O)OC)C(C)(C)C)OC(=O)[C@@H](C)N)C(C)(C)C | > 20.8 days | > 20.8 days | > 1300 µg/mL | > 1700 µg/mL |  |  | 5.94 to 8.40 | 3 nM | 0.179 days | 0.008 µM·h | 5.90 to 9.05 | 1.57 days | 520 µg/mL (≈ 670 µM) |  |  | 
COC(=O)N[C@H](C(=O)N[C@@H](Cc1ccccc1)[C@H](CN(Cc1ccc(-c2ccccn2)cc1)NC(=O)[C@@H](NC(=O)OC)C(C)(C)C)OC(=O)[C@@H](N)Cc1c[nH]c2ccccc12)C(C)(C)C | 15.7 days | 15.7 days | > 1040 µg/mL | > 910 µg/mL | 6.97 days | 1 µg/mL (≈ 1.12 µM) |  | 90 nM | 0.033 days | 0.19 µM·h |  |  |  |  |  | 
COC(=O)N[C@H](C(=O)N[C@@H](Cc1ccccc1)[C@H](CN(Cc1ccc(-c2ccccn2)cc1)NC(=O)[C@@H](NC(=O)OC)C(C)(C)C)OC(=O)[C@H](NC(=O)[C@@H](N)C(C)C)C(C)C)C(C)(C)C | > 20.8 days | > 20.8 days | > 1710 µg/mL | > 1420 µg/mL |  |  | 5.94 to 8.40 |  |  |  | 5.90 to 9.05 | > 20.8 days | 930 µg/mL (≈ 1030 µM) |  |  | 
COC(=O)N[C@H](C(=O)N[C@@H](Cc1ccccc1)[C@H](CN(Cc1ccc(-c2ccccn2)cc1)NC(=O)[C@@H](NC(=O)OC)C(C)(C)C)OC(=O)[C@H](N)Cc1ccccc1)C(C)(C)C | > 20.8 days | > 20.8 days | > 1200 µg/mL | > 1200 µg/mL |  |  | 5.94 to 8.40 | 64 nM | 0.021 days | 0.154 µM·h | 5.90 to 9.05 | > 20.8 days | < 1 µg/mL |  |  | 
CN[C@@H](Cc1ccccc1)C(=O)N(C)CC(=O)O[C@@H](CN(Cc1ccc(-c2ccccn2)cc1)NC(=O)[C@@H](NC(=O)OC)C(C)(C)C)[C@H](Cc1ccccc1)NC(=O)[C@@H](NC(=O)OC)C(C)(C)C | 15.7 days | 0.65 days | > 2700 µg/mL |  |  |  |  | 160 nM | 0.012 days | 0.092 µM·h |  | 0.00333 days |  |  |  | 
